Measurements: ChEMBL document CHEMBL1201862, “PubChem BioAssay data set” (2004)
Active and inactive are the calls of the source.

Experiments:
[1] = A cytotoxicity screen of small molecule inhibitors of the PhoP region in Salmonella typhi identified in the primary screen. [Related pubchem assays: 1850, 1864, 1985 ]; assay type: functional
[2] = target: T1, DNA repair protein RAD52 homolog (Homo sapiens, UniProt P43351); assay type: functional, biochemical
T1 sequence (P43351 whole entry): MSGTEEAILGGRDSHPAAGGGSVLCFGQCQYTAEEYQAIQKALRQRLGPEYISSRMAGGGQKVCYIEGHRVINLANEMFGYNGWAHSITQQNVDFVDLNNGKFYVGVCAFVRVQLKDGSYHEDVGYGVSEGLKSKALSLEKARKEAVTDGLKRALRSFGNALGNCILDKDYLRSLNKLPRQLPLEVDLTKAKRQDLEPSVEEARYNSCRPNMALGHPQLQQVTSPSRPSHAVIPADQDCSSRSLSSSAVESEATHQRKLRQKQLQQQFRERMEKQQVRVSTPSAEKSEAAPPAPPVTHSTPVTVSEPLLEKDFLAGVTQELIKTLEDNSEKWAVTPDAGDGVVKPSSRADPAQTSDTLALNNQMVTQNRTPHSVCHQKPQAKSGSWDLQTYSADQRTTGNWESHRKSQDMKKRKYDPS

[3] = cells
[4] = target: Beta-galactosidase (Escherichia coli, UniProt Q8VNN2); test: PubChem AID 485352; assay type: functional
[5] = target: T2, Type-1 angiotensin II receptor (Homo sapiens, UniProt P30556); test: antagonism of angiotensin II type 1 receptor – cell-based, uHTS hits, selectivity assay for APJ receptor antagonist project, dose response (AID 463214); assay type: functional;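 note: antagonist potency against angiotensin II stimulated AT1 response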
T2 sequence (P30556 whole entry): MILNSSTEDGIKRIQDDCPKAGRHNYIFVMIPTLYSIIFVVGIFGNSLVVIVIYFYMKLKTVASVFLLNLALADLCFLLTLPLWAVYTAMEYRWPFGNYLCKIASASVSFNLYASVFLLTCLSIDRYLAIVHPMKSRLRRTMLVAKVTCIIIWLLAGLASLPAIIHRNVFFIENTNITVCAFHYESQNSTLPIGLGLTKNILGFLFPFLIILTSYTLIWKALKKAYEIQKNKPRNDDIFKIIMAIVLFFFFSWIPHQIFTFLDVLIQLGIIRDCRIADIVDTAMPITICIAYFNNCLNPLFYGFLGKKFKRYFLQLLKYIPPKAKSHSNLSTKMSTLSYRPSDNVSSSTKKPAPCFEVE

[6] = target: T3, RNA-binding protein pos-1 (Caenorhabditis elegans, UniProt G5EF15); test: disruptors of C. elegans POS-1 RNA interaction – biochemical, fluorescence polarization, dose response (AID 1964);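 note: purified POS-1 fused to maltose binding protein made in E. coli; potency of compounds blocking POS-1 binding to fluorescent RNA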
T3 sequence (G5EF15 whole entry): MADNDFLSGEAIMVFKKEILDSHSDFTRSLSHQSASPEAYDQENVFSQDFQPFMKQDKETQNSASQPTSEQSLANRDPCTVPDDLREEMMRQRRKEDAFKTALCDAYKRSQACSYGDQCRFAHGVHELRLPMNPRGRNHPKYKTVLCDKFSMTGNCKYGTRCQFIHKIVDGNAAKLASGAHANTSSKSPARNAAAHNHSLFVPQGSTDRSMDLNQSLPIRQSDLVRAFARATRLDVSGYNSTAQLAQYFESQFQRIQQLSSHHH

[7] = target: T4, Zinc finger protein mex-5 (Caenorhabditis elegans, UniProt Q9XUB2); test: potency of MEX-5 RNA-binding blockers – biochemical, C. elegans, fluorescence polarization, dose response (AID 1960)
T4 sequence (Q9XUB2 whole entry): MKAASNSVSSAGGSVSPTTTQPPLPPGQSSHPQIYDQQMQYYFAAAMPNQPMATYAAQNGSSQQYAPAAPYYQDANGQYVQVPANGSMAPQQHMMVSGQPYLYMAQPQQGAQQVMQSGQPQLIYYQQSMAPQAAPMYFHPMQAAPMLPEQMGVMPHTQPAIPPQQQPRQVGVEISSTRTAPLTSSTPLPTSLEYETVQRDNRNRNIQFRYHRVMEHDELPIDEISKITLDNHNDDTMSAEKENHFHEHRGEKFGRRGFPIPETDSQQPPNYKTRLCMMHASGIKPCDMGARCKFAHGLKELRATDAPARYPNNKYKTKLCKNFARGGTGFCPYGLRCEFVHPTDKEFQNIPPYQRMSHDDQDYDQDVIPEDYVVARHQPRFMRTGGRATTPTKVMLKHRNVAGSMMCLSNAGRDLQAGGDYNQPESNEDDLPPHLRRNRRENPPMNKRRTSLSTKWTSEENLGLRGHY

[8] = target: T5, Endoribonuclease toxin MazF (Escherichia coli K-12, UniProt P0AE70); test: activation of MazEF endoribonuclease cleavage – biochemical, fluorescence, single-stranded RNA substrate, uHTS hits, dose response (AID 588481); assay type: functional
T5 sequence (P0AE70 whole entry): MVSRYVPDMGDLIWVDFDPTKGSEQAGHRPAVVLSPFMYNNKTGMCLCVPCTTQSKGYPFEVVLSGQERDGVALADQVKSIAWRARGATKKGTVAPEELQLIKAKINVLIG

[9] = target: T5, Endoribonuclease toxin MazF; test: substrate-only fluorescence increase artefacts – biochemical, single-stranded RNase substrate, counter-screen for MazEF activator project, dose response (AID 588502); assay type: functional
[10] = target: Voltage-dependent T-type calcium channel subunit alpha-1H (Homo sapiens, UniProt O95180); assay type: functional;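 note: channel activity triggered by adding a high calcium stimulation buffer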
[11] = test system: Streptococcus sp. 'group A'; test: Streptococcus pyogenes SK(-)GAS viability under kanamycin – luminescence, BacTiterGlo, confirmation, counter-screen for streptokinase expression inhibitor project, dose response (AID 1900); assay type: functional, organism-based
[12] = test system: Streptococcus; test: GAS UMAA2166 growth inhibition – luminescence, BacTiterGlo, counter-screen for streptokinase expression inhibitor project, dose response (AID 1915); assay type: functional, organism-based;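 note: potency for reduction of bacterial viability or growth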
[13] = target: Cytochrome P450 3A4 (Homo sapiens, UniProt P08684); settings: Potency;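 note: confirmatory qHTS run detecting inhibitors and substrates of CYP3A4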
[14] = test system: P388/ADR; test: cells; assay type: functional; settings: Mus musculus
[15] = test system: SN12K1; test: cells; assay type: functional; settings: Homo sapiens
[16] = test system: P388; test: cells; assay type: functional; settings: Mus musculus
[17] = target: 26S proteasome non-ATPase regulatory subunit 14 (Homo sapiens, UniProt O00487); test: inhibition of proteasome subunit RPN11 – biochemical, fluorescence polarization, uHTS hits, confirmation (AID 602368); assay type: functional
[18] = target: 72 kDa type IV collagenase (Homo sapiens, UniProt P08253); test: Dose Response validation of uHTS RPN11 inhibitor hits using a MMP-2 Fluorescence assay.; assay type: functional
[19] = target: Prothrombin (Bos taurus, UniProt P00735); test: thrombin protease inhibitors – biochemical, fluorescence polarization, uHTS hits, dose response (AID 602369); assay type: functional
[20] = test system: Vero; test: viability of Vero cells under compound – cytotoxicity control for flavivirus capping enzyme inhibitors (AID 588742); assay type: functional; settings: Chlorocebus sabaeus
[21] = test system: H9c2; test: cells; assay type: functional, cell-based; settings: Rattus norvegicus, H9c2, Myocardium;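 note: confirmatory concentration-response retest of ultra-high-throughput screening hits for modulation of myocardial damage; cell death induced by hydrogen peroxide oxidative stress; compound pretreatment for 60 min then peroxide exposure for 2 h; potency is for protecting the cells against peroxide damage rather than for killing them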
[22] = viability of uninfected HEp-2 cells – cell-based, HTS, cytotoxicity control for RSV inhibitor project, dose response (AID 2410); assay type: functional; settings: human respiratory syncytial virus

Cytochrome P450 3A4, sequence (P08684 whole entry): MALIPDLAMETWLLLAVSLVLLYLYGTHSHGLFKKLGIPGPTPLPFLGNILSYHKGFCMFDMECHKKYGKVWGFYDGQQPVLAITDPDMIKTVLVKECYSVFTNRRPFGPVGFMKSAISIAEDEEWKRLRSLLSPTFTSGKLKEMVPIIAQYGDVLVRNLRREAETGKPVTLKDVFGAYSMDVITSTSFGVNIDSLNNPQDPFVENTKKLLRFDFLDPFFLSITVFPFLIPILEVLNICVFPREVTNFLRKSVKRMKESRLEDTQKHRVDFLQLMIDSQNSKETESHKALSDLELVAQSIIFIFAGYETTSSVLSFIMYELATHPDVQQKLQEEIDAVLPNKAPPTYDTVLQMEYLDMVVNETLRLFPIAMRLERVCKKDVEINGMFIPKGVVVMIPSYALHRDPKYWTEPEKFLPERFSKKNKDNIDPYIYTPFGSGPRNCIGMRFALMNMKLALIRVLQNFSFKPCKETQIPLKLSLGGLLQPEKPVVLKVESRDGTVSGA
Voltage-dependent T-type calcium channel subunit alpha-1H, sequence (O95180 whole entry): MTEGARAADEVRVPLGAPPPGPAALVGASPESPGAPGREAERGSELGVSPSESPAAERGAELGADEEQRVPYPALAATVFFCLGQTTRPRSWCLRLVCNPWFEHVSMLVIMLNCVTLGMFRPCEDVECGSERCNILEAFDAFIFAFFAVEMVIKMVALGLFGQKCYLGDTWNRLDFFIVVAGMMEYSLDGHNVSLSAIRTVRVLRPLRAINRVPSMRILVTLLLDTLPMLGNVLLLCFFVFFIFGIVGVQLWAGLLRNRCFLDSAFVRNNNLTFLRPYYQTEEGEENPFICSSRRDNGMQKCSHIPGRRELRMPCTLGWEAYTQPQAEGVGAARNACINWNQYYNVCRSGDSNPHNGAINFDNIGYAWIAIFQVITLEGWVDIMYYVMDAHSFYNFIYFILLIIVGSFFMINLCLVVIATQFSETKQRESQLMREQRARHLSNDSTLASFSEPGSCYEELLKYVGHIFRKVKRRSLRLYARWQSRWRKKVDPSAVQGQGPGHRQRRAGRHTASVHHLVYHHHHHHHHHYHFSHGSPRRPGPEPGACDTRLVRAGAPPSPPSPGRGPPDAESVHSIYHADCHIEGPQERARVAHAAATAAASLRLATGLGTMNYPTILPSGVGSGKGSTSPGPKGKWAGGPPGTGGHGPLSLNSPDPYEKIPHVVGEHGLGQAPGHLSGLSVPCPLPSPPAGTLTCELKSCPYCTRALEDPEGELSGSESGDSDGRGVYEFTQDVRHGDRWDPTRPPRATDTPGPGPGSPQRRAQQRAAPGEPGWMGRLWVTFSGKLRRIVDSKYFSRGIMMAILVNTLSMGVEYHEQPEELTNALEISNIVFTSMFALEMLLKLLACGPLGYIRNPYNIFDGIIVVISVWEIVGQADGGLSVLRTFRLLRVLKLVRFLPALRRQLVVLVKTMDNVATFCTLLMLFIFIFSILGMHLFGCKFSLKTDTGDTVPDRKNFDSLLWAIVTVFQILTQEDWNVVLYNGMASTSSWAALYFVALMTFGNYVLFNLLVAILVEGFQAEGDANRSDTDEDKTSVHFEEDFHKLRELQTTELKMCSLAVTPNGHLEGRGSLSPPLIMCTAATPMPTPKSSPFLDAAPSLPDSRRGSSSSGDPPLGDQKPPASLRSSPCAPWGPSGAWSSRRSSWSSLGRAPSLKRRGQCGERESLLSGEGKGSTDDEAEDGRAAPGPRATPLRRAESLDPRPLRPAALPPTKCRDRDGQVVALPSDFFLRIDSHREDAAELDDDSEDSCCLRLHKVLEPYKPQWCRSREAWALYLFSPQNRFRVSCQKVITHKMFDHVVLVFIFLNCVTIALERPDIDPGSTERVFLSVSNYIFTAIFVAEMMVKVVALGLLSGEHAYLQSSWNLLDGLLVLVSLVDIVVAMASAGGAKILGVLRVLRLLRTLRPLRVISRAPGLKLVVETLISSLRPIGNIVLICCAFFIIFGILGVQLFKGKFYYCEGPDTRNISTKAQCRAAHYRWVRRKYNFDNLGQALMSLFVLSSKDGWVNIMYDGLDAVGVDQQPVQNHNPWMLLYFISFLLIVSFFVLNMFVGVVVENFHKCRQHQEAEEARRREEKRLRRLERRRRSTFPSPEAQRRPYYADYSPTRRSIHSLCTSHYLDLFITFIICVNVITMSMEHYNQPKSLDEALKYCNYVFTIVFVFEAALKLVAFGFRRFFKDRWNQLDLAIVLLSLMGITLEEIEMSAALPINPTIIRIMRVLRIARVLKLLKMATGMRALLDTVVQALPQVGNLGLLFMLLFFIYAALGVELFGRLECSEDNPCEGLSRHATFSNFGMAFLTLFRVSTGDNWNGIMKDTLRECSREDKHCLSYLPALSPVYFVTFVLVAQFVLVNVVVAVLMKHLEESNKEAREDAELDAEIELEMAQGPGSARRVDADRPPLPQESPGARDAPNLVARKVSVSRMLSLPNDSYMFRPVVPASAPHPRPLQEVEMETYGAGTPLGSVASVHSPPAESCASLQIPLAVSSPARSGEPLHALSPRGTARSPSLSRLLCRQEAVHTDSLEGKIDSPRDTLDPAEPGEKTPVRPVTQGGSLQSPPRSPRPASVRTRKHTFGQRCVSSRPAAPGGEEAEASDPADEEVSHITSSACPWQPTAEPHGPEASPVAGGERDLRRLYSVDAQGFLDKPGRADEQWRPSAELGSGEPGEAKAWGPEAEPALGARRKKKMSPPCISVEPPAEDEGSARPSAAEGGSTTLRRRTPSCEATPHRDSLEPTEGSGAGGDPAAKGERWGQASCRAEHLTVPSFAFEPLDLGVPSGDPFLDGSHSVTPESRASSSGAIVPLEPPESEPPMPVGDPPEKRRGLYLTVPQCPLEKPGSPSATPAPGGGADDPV
Beta-galactosidase, sequence (Q8VNN2 whole entry): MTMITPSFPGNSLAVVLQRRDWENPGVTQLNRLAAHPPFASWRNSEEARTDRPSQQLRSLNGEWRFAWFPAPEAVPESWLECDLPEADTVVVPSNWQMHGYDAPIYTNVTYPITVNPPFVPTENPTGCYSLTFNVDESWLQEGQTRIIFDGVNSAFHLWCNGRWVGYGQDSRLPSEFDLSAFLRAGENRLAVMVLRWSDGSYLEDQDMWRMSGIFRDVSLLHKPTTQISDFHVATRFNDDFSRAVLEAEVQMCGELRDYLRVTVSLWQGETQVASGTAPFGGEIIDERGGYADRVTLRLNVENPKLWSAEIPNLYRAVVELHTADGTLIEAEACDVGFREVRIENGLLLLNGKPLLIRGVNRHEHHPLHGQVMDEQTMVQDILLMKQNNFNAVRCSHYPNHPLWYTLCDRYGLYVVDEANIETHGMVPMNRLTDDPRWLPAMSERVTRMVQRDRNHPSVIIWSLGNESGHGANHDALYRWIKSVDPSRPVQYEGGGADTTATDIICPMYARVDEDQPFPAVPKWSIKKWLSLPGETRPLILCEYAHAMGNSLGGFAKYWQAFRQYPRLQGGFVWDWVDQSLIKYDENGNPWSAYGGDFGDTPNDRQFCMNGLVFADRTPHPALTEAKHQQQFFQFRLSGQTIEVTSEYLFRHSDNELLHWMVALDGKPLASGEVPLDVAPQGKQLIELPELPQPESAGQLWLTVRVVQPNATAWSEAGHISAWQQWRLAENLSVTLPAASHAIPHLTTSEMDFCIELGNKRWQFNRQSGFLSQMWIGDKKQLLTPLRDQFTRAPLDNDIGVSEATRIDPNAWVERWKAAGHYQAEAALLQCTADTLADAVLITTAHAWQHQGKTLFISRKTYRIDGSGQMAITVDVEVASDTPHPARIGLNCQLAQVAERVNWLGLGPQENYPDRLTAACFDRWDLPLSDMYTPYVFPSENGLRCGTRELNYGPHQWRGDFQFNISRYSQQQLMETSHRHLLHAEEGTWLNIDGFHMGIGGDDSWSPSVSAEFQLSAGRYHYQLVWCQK
26S proteasome non-ATPase regulatory subunit 14, sequence (O00487 whole entry): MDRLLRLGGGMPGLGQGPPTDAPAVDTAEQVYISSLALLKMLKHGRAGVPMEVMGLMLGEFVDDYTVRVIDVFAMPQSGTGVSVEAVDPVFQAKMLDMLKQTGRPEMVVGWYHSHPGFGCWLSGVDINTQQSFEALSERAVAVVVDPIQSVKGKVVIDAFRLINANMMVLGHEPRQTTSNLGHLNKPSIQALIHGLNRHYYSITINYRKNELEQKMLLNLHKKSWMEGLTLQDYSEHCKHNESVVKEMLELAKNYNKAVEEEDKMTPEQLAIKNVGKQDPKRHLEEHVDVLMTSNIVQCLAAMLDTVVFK
72 kDa type IV collagenase, sequence (P08253 whole entry): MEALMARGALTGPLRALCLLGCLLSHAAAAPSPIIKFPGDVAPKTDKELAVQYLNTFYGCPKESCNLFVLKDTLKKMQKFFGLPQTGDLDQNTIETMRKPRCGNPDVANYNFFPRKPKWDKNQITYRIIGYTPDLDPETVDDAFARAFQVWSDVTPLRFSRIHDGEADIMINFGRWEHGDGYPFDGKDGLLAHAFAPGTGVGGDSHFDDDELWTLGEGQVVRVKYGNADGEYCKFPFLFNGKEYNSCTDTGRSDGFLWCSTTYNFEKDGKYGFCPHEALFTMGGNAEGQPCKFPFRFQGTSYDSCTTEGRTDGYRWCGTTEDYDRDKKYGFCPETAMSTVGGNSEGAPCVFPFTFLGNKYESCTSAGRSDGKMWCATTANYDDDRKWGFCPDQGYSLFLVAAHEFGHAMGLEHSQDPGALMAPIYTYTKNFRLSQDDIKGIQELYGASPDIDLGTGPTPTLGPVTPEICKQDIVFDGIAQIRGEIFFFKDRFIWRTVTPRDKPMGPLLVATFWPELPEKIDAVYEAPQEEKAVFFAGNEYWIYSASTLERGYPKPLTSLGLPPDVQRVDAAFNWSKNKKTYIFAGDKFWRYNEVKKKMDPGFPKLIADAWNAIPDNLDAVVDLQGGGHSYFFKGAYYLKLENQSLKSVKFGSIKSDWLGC

## Clc1ccc2c(NCc3ccccn3)ccnc2c1
[1]
  EC50: > 50 µM (active)

## Cc1cc(C)c2nc3nc(C)c(C)cc3c(N)c2c1
[2]
  AC50: 1.56 µM (active)

## Cc1ccc(C(=O)N/C(=C\c2ccc(C(C)C)cc2)C(=O)NCCCN2CCOCC2)cc1
[3]
  IC50: 14.6 µM (active)

## O=C(COC(=O)c1ccco1)c1ccc(S(=O)(=O)N2CCCCC2)cc1
[4]
  EC50: > 40 µM (inactive)
[5]
  IC50: 16.5 µM (active)

## O=c1oc2ccccc2cc1-c1nc(-c2cccs2)cs1
[6]
  EC50: 15.6 µM (inconclusive)
[7]
  EC50: 5.43 µM (active)
[8]
  EC50: > 99 µM (inactive)
[9]
  EC50: > 99 µM (inactive)

## COc1ccc(N(C(=O)Cn2cnc3ccccc32)C(C(=O)NC2CCCCC2)c2ccccc2)cc1 (configuration not stated)
[10]
  EC50: 4.82 µM (active)

## CC(C)=CCc1c2c(c3occ(-c4ccc(O)cc4)c(=O)c3c1O)C=CC(C)(C)O2 [OSAJIN]
[11]
  EC50: 1.11 µM (active)
[12]
  EC50: 1.47 µM (active)
[13]
  AC50: 25.1 µM (inconclusive)

## NS(=O)(=O)c1ccc(CNC(=O)COc2ccc3c4c(c(=O)oc3c2)CCCC4)cc1
[8]
  EC50: > 99 µM (inactive)
[9]
  EC50: > 99 µM (inactive)

## CCC1(c2ccc(N)cc2)CCC(=O)NC1=O (configuration not stated) [AMINOGLUTETHIMIDE]
[14]
  GI50: 1610 µM (inactive)
[15]
  GI50: 1690 µM (inactive)
[16]
  GI50: 2390 µM (inactive)
[13]
  AC50: 31.6 µM (inconclusive)

## CCN(CC)CCOC(=O)c1ccc(NC=C2C(=O)NC(=O)NC2=O)cc1
[17]
  IC50: 22.4 µM (active)
[18]
  IC50: > 100 µM (inactive)
[19]
  IC50: 32.4 µM (active)

## CNC(=O)/C(C#N)=C/c1c(N(Cc2ccccc2)Cc2ccccc2)nc2ccccn2c1=O
[20]
  CC50: > 40 µM (active)
[21]
  IC50: > 79 µM (inactive)

## COCCNC(=O)c1c(NC(=O)c2nc(SC)ncc2Cl)sc2c1CCCC2
[17]
  IC50: 17.6 µM (active)
[18]
  IC50: > 100 µM (inactive)
[19]
  IC50: 50 µM (active)

## O=[N+]([O-])c1cc(C(F)(F)F)ccc1NCC1CCCO1 (configuration not stated)
[8]
  EC50: > 99 µM (inactive)
[9]
  EC50: > 99 µM (inactive)

## COc1cccc(/N=C2\NC(=O)/C(=C/c3cc([N+](=O)[O-])ccc3O)S2)c1
[4]
  EC50: > 40 µM (inactive)
[5]
  IC50: > 40 µM (not active)

## COc1ccc(N(C(=O)c2cccnc2)S(=O)(=O)c2ccc(F)cc2)cc1
[1]
  EC50: > 50 µM (active)

## Clc1ccc(C2[C@H]3CN(Cc4ccc(-c5ccccc5)cc4)[C@H](c4ccccc4)C34CC2(c2ccccc2)C4)cn1 (some centres not stated)
[13]
  AC50: 15.8 µM (inconclusive)

## CCc1ccccc1Nc1nc(N)nc(COC(=O)c2cccn2C)n1
[22]
  CC50: 17.3 µM (active)
[3]
  IC50: 13 µM (active)

## O=C(CSc1nnc(-c2ccccc2)n1Cc1ccco1)NCc1ccc2c(c1)OCO2
[10]
  EC50: 12.1 µM (active)

## CC(Oc1ccccc1)c1ccnn1S(=O)(=O)c1ccccc1 (configuration not stated)
[10]
  EC50: 50.8 µM (active)
